Test results from paper PMC11968843, “Sulphostin-inspired N-phosphonopiperidones as selective covalent DPP8 and DPP9 inhibitors” (Nature Communications, 2025).
Where “and” joins values, the source holds several entries; their conditions need not be identical. Equal entries are not always repeated. Where two headings read alike, the source gives them in different places.

How the values were obtained:
Format in all cases: biochemical
DPP9 [1] = target: T1, DPP9 (Homo sapiens, UniProt Q86TI2); test: biochemical; parameters: purchased Proteros Biostructures GmbH, Germany; conditions: for DPP9 activity [%]: replicates
T1 sequence (Q86TI2 whole entry): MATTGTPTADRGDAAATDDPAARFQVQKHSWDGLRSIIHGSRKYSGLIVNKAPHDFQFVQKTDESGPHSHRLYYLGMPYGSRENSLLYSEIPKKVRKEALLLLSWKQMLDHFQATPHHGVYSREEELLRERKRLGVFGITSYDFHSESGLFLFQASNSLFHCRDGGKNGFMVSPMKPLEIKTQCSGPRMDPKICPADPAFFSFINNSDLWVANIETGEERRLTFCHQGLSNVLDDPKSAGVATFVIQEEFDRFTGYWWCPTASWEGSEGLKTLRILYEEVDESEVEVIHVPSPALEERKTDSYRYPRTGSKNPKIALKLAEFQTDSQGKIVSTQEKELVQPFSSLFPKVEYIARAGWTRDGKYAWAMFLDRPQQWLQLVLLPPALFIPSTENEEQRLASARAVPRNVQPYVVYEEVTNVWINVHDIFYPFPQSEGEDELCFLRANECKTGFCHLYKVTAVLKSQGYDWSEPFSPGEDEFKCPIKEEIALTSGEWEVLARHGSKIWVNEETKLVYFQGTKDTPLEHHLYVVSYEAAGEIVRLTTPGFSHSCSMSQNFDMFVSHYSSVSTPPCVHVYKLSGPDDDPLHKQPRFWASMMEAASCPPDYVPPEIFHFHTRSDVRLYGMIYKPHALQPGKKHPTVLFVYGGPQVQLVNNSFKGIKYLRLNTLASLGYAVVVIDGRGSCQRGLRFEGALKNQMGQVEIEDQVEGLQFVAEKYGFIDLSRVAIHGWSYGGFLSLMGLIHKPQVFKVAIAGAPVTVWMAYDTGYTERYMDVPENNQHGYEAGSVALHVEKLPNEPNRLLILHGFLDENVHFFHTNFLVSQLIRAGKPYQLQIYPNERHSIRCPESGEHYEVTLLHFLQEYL
Experimental: (§1) Enzyme activity of DPP4, DPP8, DPP9 (Proteros Biostructures GmbH, Germany) and PREP (Sigma Aldrich, USA) was determined by measuring the initial velocity of AMC release from the fluorogenic substrate GP-AMC (Sigma Aldrich, USA) using a Tecan Spark® 10 M multimode microplate reader (Tecan Group Ltd., Switzerland) in activity buffer (20 mM HEPES/KOH pH 7.3, 110 mM potassium acetate, 2 mM Mg acetate, 0.5 mM EGTA, 0.02% Tween 20, supplemented with 1 mM DTT) and a final volume of 20 μL for maximal 60 min at 30 °C. Prior to activity measurement, 10 nM enzyme was incubated for 45 min at 30 °C and gentle shaking with the inhibitor compounds in concentrations ranging from 0 to 100 μM. The compounds were dissolved in DMSO and diluted in activity buffer (final DMSO concentration: 1%). […] IC50 values were calculated using Graph-Pad Prism v10.2.3 using the equation: [Inhibitor] vs. response—Variable slope (four parameters). All measurements were performed in triplicates and error bars represent standard errors of the fit.

DPP9 [2] = target: T1, DPP9; test: Time-dependent DPP9 inhibition kinetics (kobs, KI, kinact, kapp); parameters: purchased Proteros Biostructures GmbH, Germany
Experimental: (§2) To calculate the reaction rate of covalent bond formation between DPP proteins and inhibitor, kinact, KI and kapp was determined as previously described[30],[51]. Therefore, 250 µM GP-AMC was added simultaneously with a serial dilution of the inhibitor to 10 nM enzyme. Enzyme activity was measured for a maximum of 120 min at 30 °C, and fluorescence intensities were then plotted against time. Data was fitted to the following equation: Y=(vi/kobs)*(1−exp(−kobs*X)) using Graph-Pad Prism v10.2.3. The obtained pseudo-first-order rate constant was used to determine the maximum enzyme inhibition rate (kinact) and binding affinity (KI) by fitting the plot of kobs against inhibitor concentration to the following equation: Y=kinact/1+(KI/[I]) . The efficiency of covalent bond formation (kapp) was calculated by the ratio of kinact/KI. All measurements were performed in triplicates and error bars represent standard errors of the fit.

DPP8 [3] = target: T2, DPP8 (Homo sapiens, UniProt Q6V1X1); test: Time-dependent DPP8 inhibition kinetics (kobs, KI, kinact, kapp)
T2 construct: purchased Proteros Biostructures GmbH, Germany
T2 sequence (Q6V1X1 whole entry): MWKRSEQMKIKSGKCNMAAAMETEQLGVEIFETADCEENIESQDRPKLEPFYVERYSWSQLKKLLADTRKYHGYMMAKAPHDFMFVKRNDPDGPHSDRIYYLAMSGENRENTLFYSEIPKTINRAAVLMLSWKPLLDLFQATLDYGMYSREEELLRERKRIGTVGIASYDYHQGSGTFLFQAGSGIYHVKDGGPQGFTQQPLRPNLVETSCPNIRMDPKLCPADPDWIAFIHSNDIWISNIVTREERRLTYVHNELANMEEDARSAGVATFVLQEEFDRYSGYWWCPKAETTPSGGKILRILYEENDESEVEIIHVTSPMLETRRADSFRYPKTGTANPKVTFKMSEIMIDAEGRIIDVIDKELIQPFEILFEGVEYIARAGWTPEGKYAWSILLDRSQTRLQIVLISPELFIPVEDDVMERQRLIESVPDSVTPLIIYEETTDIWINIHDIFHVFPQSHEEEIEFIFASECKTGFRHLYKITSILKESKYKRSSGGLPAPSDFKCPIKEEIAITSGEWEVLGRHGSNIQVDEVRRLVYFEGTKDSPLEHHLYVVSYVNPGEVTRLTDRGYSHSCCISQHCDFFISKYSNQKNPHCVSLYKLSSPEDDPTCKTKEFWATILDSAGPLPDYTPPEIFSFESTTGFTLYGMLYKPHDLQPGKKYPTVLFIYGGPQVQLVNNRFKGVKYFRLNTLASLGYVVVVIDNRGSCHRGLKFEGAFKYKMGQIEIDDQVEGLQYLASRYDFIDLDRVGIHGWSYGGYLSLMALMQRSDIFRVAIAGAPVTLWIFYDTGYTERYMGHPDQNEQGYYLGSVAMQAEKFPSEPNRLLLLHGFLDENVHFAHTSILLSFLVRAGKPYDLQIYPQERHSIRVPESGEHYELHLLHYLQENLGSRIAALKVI
Experimental: as §2

DPP4 [4] = target: T3, DPP4 (Homo sapiens, UniProt P27487)
T3 construct: purchased Proteros Biostructures GmbH, Germany
T3 sequence (P27487 whole entry): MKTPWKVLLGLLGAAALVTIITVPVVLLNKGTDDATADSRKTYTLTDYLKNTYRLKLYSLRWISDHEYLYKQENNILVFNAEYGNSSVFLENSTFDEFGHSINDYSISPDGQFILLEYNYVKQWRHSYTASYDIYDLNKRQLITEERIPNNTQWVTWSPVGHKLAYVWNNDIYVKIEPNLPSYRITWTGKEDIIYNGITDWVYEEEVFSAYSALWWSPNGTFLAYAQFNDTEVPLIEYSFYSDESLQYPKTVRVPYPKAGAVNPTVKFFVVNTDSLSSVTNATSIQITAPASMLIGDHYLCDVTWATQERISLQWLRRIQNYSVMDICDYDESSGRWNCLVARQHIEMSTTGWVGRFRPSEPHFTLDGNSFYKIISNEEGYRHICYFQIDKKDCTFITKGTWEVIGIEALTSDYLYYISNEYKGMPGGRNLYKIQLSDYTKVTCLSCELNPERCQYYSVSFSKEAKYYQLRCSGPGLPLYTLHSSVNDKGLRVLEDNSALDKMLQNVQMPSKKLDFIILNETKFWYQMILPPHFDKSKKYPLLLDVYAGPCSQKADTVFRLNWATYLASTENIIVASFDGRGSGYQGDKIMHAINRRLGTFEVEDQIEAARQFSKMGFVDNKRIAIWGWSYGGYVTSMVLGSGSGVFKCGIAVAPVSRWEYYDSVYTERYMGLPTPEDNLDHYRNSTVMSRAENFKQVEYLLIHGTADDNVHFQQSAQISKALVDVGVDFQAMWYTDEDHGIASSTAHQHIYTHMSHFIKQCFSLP
Experimental: as §2, with “Therefore, 250 µM GP-AMC was added simultaneously with a serial dilution of the inhibitor to 10 nM enzyme.” left out

DPP4 [5] = target: T3, DPP4; test: biochemical; conditions: for DPP4 activity [%]: replicates
Experimental: as §1

DPP8 [6] = target: T2, DPP8; test: biochemical
Experimental: as §1

[7] = irreversible inhibition, fit of kobs vs inhibitor concentration

CCCCCc1ccc(SCCP(=O)(OCC)N2CCC[C@H](N)C2=O)cc1.O=C(O)C(F)(F)F (stereo partly drawn) [Compound 16]
IC50 (DPP9 [1]; GP-AMC 250 µM, 10 nM enzyme, 45 min pre-incubation at 30 °C, read-out: IC50 DPP9): 0.298 ± 0.021 µM | DPP9 activity [%] (DPP9 [1]; c 15.625 nM): 90.8881% and 85.3617% and 82.8729% | DPP9 activity [%] (DPP9 [1]; c 31.25 nM): 91.5419% and 83.379% and 89.0951% | DPP9 activity [%] (DPP9 [1]; c 62.5 nM): 100.148% and 96.4776% and 87.1335% | DPP9 activity [%] (DPP9 [1]; c 156.25 nM): 75.5857% and 64.6658% and 62.3826% | DPP9 activity [%] (DPP9 [1]; c 250 nM): 60.7045% and 50.2004% and 47.0576% | DPP9 activity [%] (DPP9 [1]; c 312.5 nM): 47.5512% and 45.1489% and 49.4375% | DPP9 activity [%] (DPP9 [1]; c 500 nM): 25.3111% and 25.3533% and 24.7205% | DPP9 activity [%] (DPP9 [1]; c 625 nM): 28.2131% and 30.5361% and 23.7856% | DPP9 activity [%] (DPP9 [1]; c 1000 nM): 10.0823% and 10.3775% and 12.2759% | DPP9 activity [%] (DPP9 [1]; c 2500 nM): 5.122% and 5.281% and 6.135% | DPP9 activity [%] (DPP9 [1]; c 5000 nM): 3.4348% and 3.693% and 4.11% | DPP9 activity [%] (DPP9 [1]; c 10000 nM): 2.0053% and 1.966% and 1.707% | kobs DPP9 (DPP9 [2]; c 0.0625 µM): 0.0001274 s⁻¹ | kobs DPP9 (DPP9 [2]; c 0.25 µM): 0.0002545 s⁻¹ | kobs DPP9 (DPP9 [2]; c 1 µM): 0.0004155 s⁻¹ | kinact DPP9 (DPP9 [2]; [7]): 0.0005 ± 0.00007 s⁻¹ | KI (inactivation) (DPP9 [2]; irreversible inhibition, fit of kobs vs inhibitor concentration, read-out: KI DPP9): 2.16e-07 ± 9e-08 M | KI (inactivation) (DPP9 [2]; source data, read-out: KI [M] best fit DPP9): 2.16e-07 M | kobs DPP8 (DPP8 [3]; c 0.003125 µM): 7.927e-05 s⁻¹ | kobs DPP8 (DPP8 [3]; c 0.025 µM): 0.0001486 s⁻¹ | kinact DPP8 (DPP8 [3]; [7]): 0.00018 s⁻¹ | KI (inactivation) (DPP8 [3]; irreversible inhibition, fit of kobs vs inhibitor concentration, read-out: KI DPP8): 4e-09 ± 2e-09 M | KI (inactivation) (DPP8 [3]; source data, read-out: KI [M] best fit DPP8): 3.53e-09 M | kobs DPP4 (DPP4 [4]; c 250 µM): 0.003317 s⁻¹ | kobs DPP4 (DPP4 [4]; c 1000 µM): 0.006797 s⁻¹ | kinact DPP4 (DPP4 [4]; [7]): 0.01027 s⁻¹ | kapp DPP4 (DPP4 [4]; ratio kinact/KI): 20 M⁻¹ s⁻¹ | KI (inactivation) (DPP4 [4]; source data, read-out: KI [M] best fit DPP4): 0.000512 M | IC50 (DPP4 [5]; GP-AMC 250 µM, 10 nM enzyme, 45 min pre-incubation at 30 °C, read-out: IC50 DPP4): 16.1 µM | DPP4 activity [%] (DPP4 [5]; c 15.625 nM): 93.2714% and 107.175% and 106.746% | DPP4 activity [%] (DPP4 [5]; c 31.25 nM): 98.0992% and 97.1086% and 101.856% | DPP4 activity [%] (DPP4 [5]; c 62.5 nM): 102.891% and 92.9769% and 100.41% | DPP4 activity [%] (DPP4 [5]; c 250 nM): 99.4378% and 98.9828% and 107.906% | DPP4 activity [%] (DPP4 [5]; c 500 nM): 104.087% and 100.437% and 100.482% | DPP4 activity [%] (DPP4 [5]; c 1000 nM): 94.3422% and 97.3674% and 95.7968% | DPP4 activity [%] (DPP4 [5]; c 1562.5 nM): 95.896% and 97.1752% and 96.7627% | DPP4 activity [%] (DPP4 [5]; c 3125 nM): 92.5869% and 89.2118% and 84.6321% | DPP4 activity [%] (DPP4 [5]; c 6250 nM): 85.4573% and 71.7259% and 79.6149% | DPP4 activity [%] (DPP4 [5]; c 25000 nM): 32.8097% and 29.6905% and 29.938% | DPP4 activity [%] (DPP4 [5]; c 50000 nM): 6.082% and 4.679% and 4.407% | DPP4 activity [%] (DPP4 [5]; c 100000 nM): 0.3548% and 1.386% and 0.7592% | IC50 (DPP8 [6]; GP-AMC 250 µM, 10 nM enzyme, 45 min pre-incubation at 30 °C, read-out: IC50 DPP8): 0.014 ± 0.001 µM | DPP8 activity [%] (DPP8 [6]; c 15.625 nM, replicates): 42.4788% and 41.4194% and 46.9279% | DPP8 activity [%] (DPP8 [6]; c 25 nM, replicates): 28.7129% and 21.6298% and 23.9147% | DPP8 activity [%] (DPP8 [6]; c 31.25 nM, replicates): 25% and 29.6611% and 26.8008% | DPP8 activity [%] (DPP8 [6]; c 50 nM, replicates): 11.5004% and 14.9276% and 11.5003% | DPP8 activity [%] (DPP8 [6]; c 62.5 nM, replicates): 11.5466% and 15.9958% and 12.9237% | DPP8 activity [%] (DPP8 [6]; c 100 nM, replicates): 5.331% and 3.808% and 3.884% | DPP8 activity [%] (DPP8 [6]; c 250 nM, replicates): 4.449% (2×) and 5.085% | DPP8 activity [%] (DPP8 [6]; c 500 nM, replicates): 3.39% and 4.449% and 3.1779% | DPP8 activity [%] (DPP8 [6]; c 1000 nM, replicates): 3.496% and 1.907% and 2.6483% | DPP8 activity [%] (DPP8 [6]; c = 1.5625 nM inhibitor, individual replicates): 85.6817% and 91.6222% and 85.0724% | DPP8 activity [%] (DPP8 [6]; c = 3.125 nM inhibitor, individual replicates): 102.513% and 82.8637% and 92.1555% | DPP8 activity [%] (DPP8 [6]; c = 6.25 nM inhibitor, individual replicates): 73.0388% and 69.9924% and 75.3236% | DPP8 vs. DPP9 selectivity (DPP8 [6]; from IC50 values): ~ 21 fold | selectivity of DPP8 inhibition over DPP4 (DPP8 [6]; from IC50 values): ~ 1154 fold
